In patent publication US12663426B2, “Method and composition for measurement of nitric oxide” (The University of Chicago, priority 2019, dated 2026):
Where two headings read alike, the source gives them in different places.

Experiments:
[1] = 37° C., 100 mM phosphate buffer (pH 7.4); cited from earlier work
[2] = Decomposition / NO release of DEA NONOate; assay type: physicochemical
Source text: (§1) Sub-cellular nitric oxide quantification. […] (FIG. 16).
Additionally, DEA-NONOate concentration follows first order decay and can be described with initial DEA-NONOate concentration (indicated by [NONOate]0).
Next, in order to measure the relative activities of NOS3 at the plasma membrane and the TGN, a method was developed to quantify sub-cellular NO generated due to NOS3 activity. […] As the effective concentration of NO at any time, [NO]eff, changes with time, NOS3 activity is best quantified by the rate of NO production. Therefore, the decomposition rate constant (k1 sec^−1) of DEA-NONOate was first measured from its UV absorbance at 250 nm, to obtain [NO]eff over time in solution for fixed DEA-NONOate concentrations (FIG. 17a, Methods) (Ramamurthi, A. & Lewis, R. S. Measurement and modeling of nitric oxide release rates for nitric oxide donors. Chem. Res. Toxicol. 10, 408-413 (1997)). […]
In vitro fluorescence measurements: All fluorescence studies were carried out on a Fluoromax-4 (Horiba Scientific, Japan) spectrophotometer. […] Fluorescence emission spectra were collected in the range of 560-620 nm (slit width=2 nm) for DAR and 655-700 nm (slit width=2 nm) for A647N. […] Fluorescence signal from NOckout. […] was recorded sequentially in the DAR (G) and A647N (R) channels before and after the addition of DEANONOate (30 μM) at timed intervals (30 s). […]

[3] = target: T1, NOS2 (Mus musculus, UniProt P29477); assay: In cellulo specificity of NOckout to NO in LPS primed J774A.1 cells; assay type: cell-based; conditions: J774 cells, LPS; VAS2870 10 μM, ABAH 50 μM
T1 construct: J774A.1 cells were treated with 1 μg/mL LPS for 12 h prior to the addition of NOckout; endogenous in cells; host or cells: J774A.1 macrophages primed with LPS
Method: Pharmacological inhibition: Pharmacological inhibition of different enzymes were performed by employing known inhibitors. […] Cells were bathed in inhibitors 1 h prior to the addition of NOckout probes during the specificity experiment performed in J774A.1 cells.
In cellulo specificity of NOckout to NO: In cellulo specificity of the NOckout probe towards NO^− was validated in J774A.1 cells. […] J774A.1 cells were treated with 1 μg/mL LPS for 12 h prior to the addition of NOckout (500 nM in HBSS) either in the presence or in absence of specific inhibitors. LPS addition was employed to induce the expression of NOS2NOX and MPO. […] After 90 minutes of incubation with the NOckout culture media was removed from the cells and three washes were performed using HBSS to remove extracellular NOckout before proceeding to the fluorescence imaging. […]
The in-cell specificity of NOckout can be evaluated by measuring the contribution of the reactive species produced by NOX, MPO and NOS2 to the observed fold change in G/R ratio upon LPS stimulation. […] As NOS2 activity is not pan-endosomal, specificity is given by quantifying the percentage of endosomes that show G/R values higher than the mean G/R value in endosomes of unstimulated, NOS2 inhibited cells, as the latter corresponds to basal endosomal NO levels (FIG. 6c).

[4] = system: NOS3; assay: Sub-cellular nitric oxide quantification (rate of NO production, in-cell calibration); assay type: cell-based; conditions: T-47D cells, 1 μM thapsigargin
Method: as §1
After characterizing NO releasing profile of DEA NONOate, cellular NO production was compared to NO released from DEA-NONOate. […] As expected G/B intensity increases over time and the rate of increase is proportional to DEA-NONOate concentration. Then 1 μM thapsigargin was added to get the initial rate of NO production at the plasma membrane.
Note this only applies to the initial phase of DAR activation where [DAR] can be considered as constant. From the predicted [NO] from DEA-NONOate, the tested concentration of NONOate, the first 30 s [NO] increases with t. […]
Using the calibration curve, the initial G/B rates from thapsigargin treated cells is plugged in and the plasma membrane NO production was measured to be 576±61 nM/s (FIG. 3e).
Next, in order to measure the relative activities of NOS3 at the plasma membrane and the TGN, a method was developed to quantify sub-cellular NO generated due to NOS3 activity. […] As the effective concentration of NO at any time, [NO]eff, changes with time, NOS3 activity is best quantified by the rate of NO production. […]
An in-cell calibration protocol was developed to measure the rate of NO production for various concentrations of DEA-NONOate using NOckout probes. […] NOckout^PM labeled cells was then treated with 1 μM thapsigargin and measured the rate of NO production given by the increasing G/B ratio. […]

[5] = system: TNF-α; assay: TNF-α quantification by ELISA in J774A.1 cells; assay type: cell-based; conditions: 500 nM, 2 h
Method: TNF-α Quantification: To quantify the immunogenicity NOckout probes and the corresponding immunogen alone, ELISA for TNF-α was performed in J774A.1 cells. Briefly, J774A.1 cells cultured in DMEM were incubated with 500 nM NOckout sensors, CpG nucleotides, RNA, or LPS at 37° C. for 2 h. Postincubation 100 μL of extracellular medium from the culture was used to perform TNF-α quantification using ELISA kit (Cayman, catalog number 500850) according to manufacturers instructions. The calibration curve for TNF-α was generated using recombinant. TNF-α as per the vendor's instructions.
We treated J774A.1 cells with each PAMP motif, for example mCpG, zCpG, RNA, or iRNA and their corresponding NOckout display vairent and quantified TNFα in the extracellular milieu by enzyme-linked immunisorbent assay (ELISA) (FIG. 47). […] This is because, beyond 2 h in cell culture, the probe is degraded in lysosomes, likely by DNase II, NOckout probes therefore can reliably report on endosomal NO levels only up to 2 h postinternalization (FIG. 45).

[6] = target: T2, murine TLR-9 (Mus musculus, UniProt Q9EQU3); assay: Endosomal NO in primary mouse microglia with NOckout^mCpG; assay type: cell-based; conditions: primary microglia, versus NOckout^mCpG, n=100 endosomes
T2 construct: endogenous in cells; host or cells: primary microglia from C57BL/6 mice
T2 sequence (Q9EQU3 26-1032): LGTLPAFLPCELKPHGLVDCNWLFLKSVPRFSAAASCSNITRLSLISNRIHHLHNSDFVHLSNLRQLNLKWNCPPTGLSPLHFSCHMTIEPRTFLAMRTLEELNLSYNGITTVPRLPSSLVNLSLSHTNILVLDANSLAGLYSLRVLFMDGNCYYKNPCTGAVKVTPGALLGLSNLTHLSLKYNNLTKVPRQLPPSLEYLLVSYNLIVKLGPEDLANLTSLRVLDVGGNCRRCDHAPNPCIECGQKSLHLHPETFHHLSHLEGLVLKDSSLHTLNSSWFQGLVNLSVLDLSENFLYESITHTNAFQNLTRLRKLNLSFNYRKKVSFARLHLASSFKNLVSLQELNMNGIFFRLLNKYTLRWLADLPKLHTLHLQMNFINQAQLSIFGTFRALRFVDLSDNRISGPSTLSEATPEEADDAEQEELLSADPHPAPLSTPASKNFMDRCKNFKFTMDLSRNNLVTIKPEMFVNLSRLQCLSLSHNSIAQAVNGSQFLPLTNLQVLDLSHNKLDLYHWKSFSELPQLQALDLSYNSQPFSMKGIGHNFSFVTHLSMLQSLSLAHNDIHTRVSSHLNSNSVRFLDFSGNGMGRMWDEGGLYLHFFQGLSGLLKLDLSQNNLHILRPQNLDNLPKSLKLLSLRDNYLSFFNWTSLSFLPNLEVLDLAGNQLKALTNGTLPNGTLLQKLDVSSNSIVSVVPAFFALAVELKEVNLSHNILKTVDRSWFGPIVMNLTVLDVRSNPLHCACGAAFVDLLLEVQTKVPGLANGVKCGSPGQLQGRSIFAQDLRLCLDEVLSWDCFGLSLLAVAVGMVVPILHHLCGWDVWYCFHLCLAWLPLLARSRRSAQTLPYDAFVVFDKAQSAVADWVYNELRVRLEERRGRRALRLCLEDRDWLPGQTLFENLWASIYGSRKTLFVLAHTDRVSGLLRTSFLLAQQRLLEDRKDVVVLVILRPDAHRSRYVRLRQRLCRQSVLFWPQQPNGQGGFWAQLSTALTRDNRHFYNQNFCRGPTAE
Source text: Image analysis: A MATLAB based program called Findosome was used to calculate the (G/R) values of individual endosomes from the acquired images. Maximum Z-projected images created using Fiji (NIH) were fed to Findosome to pick endosomal compartments as ROI corresponding to individual endosomes based on the A647 channel intensity. For each ROI, the program calculates fluorescence intensities both in the normalizing channel (A647, R) as well as in the DAR (G) channel. The results were exported as an excel file. From the results, (G/R) value for individual endosomes can be calculated. Phagosomal (G/R) values from the zebrafish microglia are calculated using Fiji software. Images were imported to Fiji and maximum Z-projected images were created. ROI were manually drawn around clearly identifiable phagosomes using the normalizing channel A647 intensity. Fluorescence intensities in A647 and DAR channels were calculated. G/R values are either represented as heat map images using Fiji or as bar graph using Origin software. Intracellular measurements of (G/R) values was performed in GFP colocalized microglia. For (G/R) ratio quantification experiments, only those vesicles that are present in both green (G) and red (R) channels were considered. […]

For `CCN(CC)/[N+]([O-])=N/O.CCNCC` [DEA NONOate, Diethylamine NONOate], the half-life [1] is listed as 2 min, the “k1, decomposition rate constant” value ([2]; calculated from UV absorption at 250 nm) is listed as 0.00131 s⁻¹ and the half-life ([2]; pH 7.4 at 25° C.) is listed as “about 9 min”.

In the case of `c1ccc(Cn2nnc3c(Sc4nc5ccccc5o4)ncnc32)cc1` [VAS2870], the “NO signal of NOckout with inhibitor” value [3] is reported as “did not reduce NO signal”.

For `C/C=C(/C)C(=O)O[C@H]1C(C)=C2[C@H]([C@@H]1OC(=O)CCCCCCC)[C@@](C)(OC(C)=O)C[C@H](OC(=O)CCC)[C@@]1(O)[C@H]2OC(=O)[C@@]1(C)O` [thapsigargin], the “rate of NO production at the plasma membrane” value ([4]; NOckout^PM) was 576 ± 61 nM/s and the “initial rate of NO production at the TGN” value ([4]; NOckout^TGN) was 74 ± 41 nM/s.

For “NOckout^mGpC: control of NOckout^mCpG with non-immunostimulatory GpC motifs (TGCTGTCTGGTGTGCAGTGTTGATTTTCCATGAGCTTCCTGACCTT; DNA nanodevice strand, phosphorothioate ODN overhang and dyes, pattern not given here)”, the “TNF-α in the extracellular milieu” value [5] was “dramatic reduction in TNF-α levels” and the “reduction of NO-rich endosomes” value [6] was 40%.
